Source: patent US8669260B2, “Ketoconazole-derivative antagonist of human pregnane X receptor and uses thereof” (priority 2008, dated 2014)
Where two headings read alike, the source gives them in different places.

Experiments:
[1] = system: PXR target genes in SKOV-3 cells; assay: Quantitative RT-PCR of PXR target genes in SKOV-3 cells; type: cell-based; details: 0-1.0 μM
SKOV-3 cells [2] = details: MTT; 48-96 hr exposure (T1317: 48 hours, normalized to GSK1385)
LXR = details: known potency; cited from earlier work
SKOV-3 cells [3] = assay: Chemotherapeutic sensitivity assay in SKOV-3 cells with and without rifampicin
[4] = system: Caco-2, LS174T, SKOV3 and CRL cell lines; assay: Drug induced cytotoxicity by MTT assay in cancer and fibroblast cell lines
PXR [5] = target: T1, PXR (Homo sapiens, UniProt O75469); assay: cell-based; design: expressed in transfected cells; host or cells: HepG2
T1 sequence (O75469 1-434): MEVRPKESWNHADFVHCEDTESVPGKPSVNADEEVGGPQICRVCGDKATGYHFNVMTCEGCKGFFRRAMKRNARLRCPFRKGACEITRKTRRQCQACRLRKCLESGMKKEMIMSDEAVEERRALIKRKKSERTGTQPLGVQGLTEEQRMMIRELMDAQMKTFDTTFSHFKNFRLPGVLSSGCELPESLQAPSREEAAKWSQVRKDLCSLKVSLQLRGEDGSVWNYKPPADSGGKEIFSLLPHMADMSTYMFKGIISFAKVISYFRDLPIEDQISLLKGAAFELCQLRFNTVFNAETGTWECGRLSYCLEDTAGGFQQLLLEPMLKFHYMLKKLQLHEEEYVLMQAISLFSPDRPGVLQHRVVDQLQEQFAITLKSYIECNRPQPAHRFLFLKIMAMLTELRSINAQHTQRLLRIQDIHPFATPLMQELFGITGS

PXR [6] = target: T1, PXR; assay: PXR transactivation assay (activation mode), HepG2 cells transfected with human PXR-pcDNA3 and CYP3A-Luc; type: cell-based; design: expressed in transfected cells; host or cells: HepG2
HepG2 cells = details: for HepG2 cell proliferation (in words): 48 hours
CYP3A4 = CYP3A4 (Homo sapiens, UniProt P08684); assay: Time-dependent CYP3A4 inhibition assay in human liver microsome (midazolam 1-hydroxylase); details: for Maximum % Inhibition, midazolam-1-hydroxylase activity / IC50: human liver microsome; for IC50: read-out: IC50, midazolam-1-hydroxylase activity
Method: Briefly, test articles were incubated in a reaction mixture containing 5 μM midazolam, 0.1 mg/ml human liver microsomes and 1 mM NADPH for 5 min. The enzyme reaction was stopped by adding an equal volume of quench solution (H2O:acetonitrileformic-acid=94:5:1) containing ^13C-1-hydroxymdiazolam (0.1 μM final) as the internal standard. In order to test time-dependency of CYP3A4 inhibition, an identical reaction was started without midazolam and the reaction mixture was incubated for 30 min. After the pre-incubation, 5 μM midazolam was added and incubated for 5 min before the quench solution was added. The samples were centrifuged at 1,500 RPM for 15 min to precipitate denatured microsomal proteins. […] A percent CYP3A4 inhibition (% Inh) was calculated by the following equation:
[formula] CDMSO and Ccompound are concentrations of 1-hydroxymidazolam in the vehicle control and a compound tested, respectively. A plot of concentration-% Inh was then created and from the plot, IC50 and Maximum % Inhibition were reported.

LS174T cells = assay: LS174T cell growth (trypan blue counting, doubling time); details: within 72 hours
SKOV-3 xenografts = assay: In vivo SKOV-3 xenograft studies in NOD.SCID mice
Method: HepG2 cells were processed into slides using histogel (Richard-Allan Scientific, Kalamazoo, Mich.). The slides were placed in a 59° C. oven in the morning of the experiments. For cells and tissue specimens, after de-waxing and re-hydrating the slides, slides were placed in a sodium citrate solution, pH 6.0 (Vector labs, Burlingame, Calif.) for 20 minutes. […] Cell sections were then immunostained with the biotin-streptavidin system from Vector Labs per manufacturer's instructions. Institutional IRB approval (#2007-902) was obtained for use of tissue sections from patients with serous papillary ovarian carcinoma and benign ovaries.
2×10^6 SKOV-3 cells were implanted by subcutaneous route into both flanks of NOD.SCID mice. On day 35 after inoculation, the mean (±SD) (n=32) volume of implanted tumor was 8 mm^3 (±3.5) (range: 4.3-18.3). […] Control intravenous injections consisted of 30% polyethylene glycol. The tumor volume was calculated twice a week using the following formula: Length (mm)×[Width (mm)]^2×π/6 (25).

PXR [7] = target: T1, PXR; details: known potency; cited from earlier work
[8] = non-linear regression, activation by 10 μM rifampicin, read-out: PXR Inhibition IC50

Chain of CYP3A4 (P08684 whole entry): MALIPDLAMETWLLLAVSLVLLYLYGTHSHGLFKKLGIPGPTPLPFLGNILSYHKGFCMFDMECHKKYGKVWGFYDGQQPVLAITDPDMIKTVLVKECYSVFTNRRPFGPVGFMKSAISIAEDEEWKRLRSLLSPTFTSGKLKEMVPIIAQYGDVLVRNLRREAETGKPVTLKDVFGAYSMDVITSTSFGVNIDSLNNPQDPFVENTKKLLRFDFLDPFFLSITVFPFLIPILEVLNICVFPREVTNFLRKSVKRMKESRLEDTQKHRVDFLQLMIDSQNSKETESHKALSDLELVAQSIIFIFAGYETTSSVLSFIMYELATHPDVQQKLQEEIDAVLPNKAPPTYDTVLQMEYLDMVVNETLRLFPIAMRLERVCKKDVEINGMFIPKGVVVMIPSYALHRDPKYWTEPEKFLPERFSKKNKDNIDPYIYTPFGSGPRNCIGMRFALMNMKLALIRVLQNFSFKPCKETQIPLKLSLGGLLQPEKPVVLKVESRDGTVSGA

For O=S(=O)(c1ccccc1)N(CC(F)(F)F)c1ccc(C(O)(C(F)(F)F)C(F)(F)F)cc1 [T0901317], the “PXR target gene induction (in words)” value [1] is given as “same profile of gene expression”, the “SKOV-3 cell survival (in words)” value (SKOV-3 cells [2]) is given as “significant increase in cell survival” and the EC50 (LXR) is given as […].
For C/C(=C\c1csc(C)n1)[C@@H]1C[C@@H]2O[C@]2(C)CCC[C@H](C)[C@H](O)[C@@H](C)C(=O)C(C)(C)[C@@H](O)CC(=O)N1 [ixabepilone], the “% increased survival relative to ixabepilone without rifampicin” value (SKOV-3 cells [3]; SKOV-3, ixabepilone 0.1-50 μM in the presence of rifampicin, average) was about 20%.
In the case of CC(=O)N1CCN(c2ccc(OCC3COC(Cn4ccnc4)(c4ccc(Cl)cc4Cl)O3)cc2)CC1 (centres unmarked) [Ketoconazole, ketoconazole], the viability ([4]; across all cell lines tested, effective concentration range for PXR inhibition (two times the IC50 ~30 μM), 48 hours) is reported as 65-75%, the IC50 (PXR [5]) is reported as 18.7 µM and the “inhibition of rifampicin-mediated PXR activation (in words)” value (PXR [5]) is reported as “inhibitor of activated PXR”. The EC50 (PXR [6]) was over 50 µM, the “PXR activation (in words)” value (PXR [6]; PXR transactivation assay) was “weak activator of PXR” and the “HepG2 cell proliferation (in words)” value (HepG2 cells; combination of ketoconazole and rifampicin) was “cell proliferation is clearly decreased”. It also gave a non-viable cells (HepG2 cells; HepG2, 48 hours, 50 μM) of over 35%.
With CC(=O)N1CCN(c2ccc(OC[C@H]3CO[C@@](C)(c4ccc(Cl)cc4Cl)O3)cc2)CC1 [UCL2158H] the “cytotoxicity (in words)” value ([4]; epithelial cells, concentration range up to 100 μM, MTT) was “less cytotoxic than ketoconazole”, the “Maximum % Inhibition Observed” value (PXR [5]) was 109% and the “inhibition of rifampicin-mediated PXR activation (in words)” value (PXR [5]; PXR transactivation assay) was “most potent inhibitors of PXR”. The IC50 (PXR [5]; [8]) was 14.6 µM, the “PXR Inhibition Imax” value (PXR [5]; non-linear regression, maximal inhibition of PXR activation with 10 μM rifampicin) was 128% and the “Maximum % Inhibition, midazolam-1-hydroxylase activity” value (CYP3A4; +preincubation (30 min)) was 67%. The “time-dependency of CYP3A4 inhibition” value (CYP3A4; IC50 with vs without 30 min preincubation) was “no time-dependency”, the IC50 (CYP3A4; +preincubation (30 min)) was 19.6 µM and the IC50 (CYP3A4; −preincubation) was 10.8 µM. The “Maximum % Inhibition, midazolam-1-hydroxylase activity” value (CYP3A4; −preincubation) was 80%, the “Maximum % Activation Observed” value (PXR [6]; PXR transactivation relative to 10 μM rifampicin, HepG2, 24 h, 50 μM-2.5 nM) was 10% and the EC50 (PXR [6]; non-linear regression analysis, read-out: PXR Activation EC50) was over 50 µM.
With CCc1c2c(nc3ccc(O)cc13)-c1cc3c(c(=O)n1C2)COC(=O)[C@]3(O)CC [SN-38] the “resistance index induced by rifampicin” value (SKOV-3 cells [3]; IC50(R)/IC50 (no R)) was about 17.5, the IC50 (SKOV-3 cells [3]; read-out: IC50(R), SKOV-3 cells, with rifampicin) was about 3.5 µM and the IC50 (SKOV-3 cells [3]; read-out: IC50 (no R), SKOV-3 cells, without rifampicin) was about 0.2 µM.
For rifampicin, the “growth rate constant (k=ln 2/g)” value (LS174T cells; PXR knockdown LS174T cells) was about 0.008 hr^−1, the “growth rate constant (k=ln 2/g)” value (LS174T cells; vector-transfected LS174T cells) was about 0.02 hr^−1 and the “Ki67 stained cells, mean (SEM)” value (SKOV-3 xenografts; SKOV-3 xenografts, NOD.SCID mice, 40 mg/kg/day i.v., control 577.0 (21), p<0.00001) was 937.0 (37). The “tumor size at necropsy and tumor weight (in words)” value (SKOV-3 xenografts; day 60, versus control) was “significantly larger tumors”, the “tumor volumes (in words)” value (SKOV-3 xenografts; days 45-60, versus controls) was “significantly higher” and the IC50 (PXR [5]; [8]) was over 50 µM. The EC50 (PXR [7]) was 1 to 2 µM, the “effect on cytotoxicity of ixabepilone, paclitaxel and SN-38 (in words)” value (SKOV-3 cells [3]; SKOV-3 cells, rifampicin 20 μM) was “significantly decreased the cytotoxicity” and the “HepG2 cell proliferation (in words)” value (HepG2 cells; single agent) was “concentration dependent proliferation of cells”.
For CC(=O)O[C@H]1C(=O)[C@@]2(C)[C@H]([C@H](OC(=O)c3ccccc3)[C@]3(O)C[C@H](OC(=O)[C@H](O)[C@@H](NC(=O)c4ccccc4)c4ccccc4)C(C)=C1C3(C)C)[C@]1(OC(C)=O)CO[C@@H]1C[C@@H]2O [paclitaxel], the IC50 (SKOV-3 cells [3]; Homo sapiens, SK-OV-3, read-out: IC50 with rifampicin (R)) was about 40 µM, the IC50 (SKOV-3 cells [3]; Homo sapiens, SK-OV-3, read-out: IC50 without rifampicin (no R)) was about 4 µM and the “resistance index induced by rifampicin” value (SKOV-3 cells [3]; IC50 with rifampicin / IC50 without rifampicin) was about 10 fold.
